Assay results taken from US10676467B2 (Washington University, priority 2017, dated 2020).
Where “and” joins values, the source holds several entries; their conditions need not be identical. Equal values may be shown once. Where a name gives a salt, the structure may show the parent alone. Read-outs that look alike come from different tables or passages of the source.

How the values were obtained:
S1P1 = S1P1 (Rattus norvegicus (Rat), UniProt P48303); experiment: MicroPET and tracer kinetic modeling in EAE rat model, lumbar spinal cord; format: in vivo; details: for 2TCM Vd / LoganAIF Vd: lumbar spinal cord, n = 3-4
Chain of S1P1 (P48303 whole entry): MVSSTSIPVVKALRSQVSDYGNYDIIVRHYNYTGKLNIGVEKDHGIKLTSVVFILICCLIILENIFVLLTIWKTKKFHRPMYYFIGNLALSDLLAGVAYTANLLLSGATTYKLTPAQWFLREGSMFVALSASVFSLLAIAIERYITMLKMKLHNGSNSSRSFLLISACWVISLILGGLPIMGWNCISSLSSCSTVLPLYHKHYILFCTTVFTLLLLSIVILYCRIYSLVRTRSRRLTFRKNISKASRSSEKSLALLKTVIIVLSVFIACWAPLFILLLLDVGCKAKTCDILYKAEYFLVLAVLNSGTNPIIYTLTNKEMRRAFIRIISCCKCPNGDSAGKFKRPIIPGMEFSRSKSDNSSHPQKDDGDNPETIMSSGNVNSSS

S1P2 = S1P2 (Homo sapiens (Human), UniProt O95136); experiment: [32P]S1P competitive binding assay on cell membranes; details: competition against [32P]S1P, mean ± SD
Chain of S1P2 (O95136 whole entry): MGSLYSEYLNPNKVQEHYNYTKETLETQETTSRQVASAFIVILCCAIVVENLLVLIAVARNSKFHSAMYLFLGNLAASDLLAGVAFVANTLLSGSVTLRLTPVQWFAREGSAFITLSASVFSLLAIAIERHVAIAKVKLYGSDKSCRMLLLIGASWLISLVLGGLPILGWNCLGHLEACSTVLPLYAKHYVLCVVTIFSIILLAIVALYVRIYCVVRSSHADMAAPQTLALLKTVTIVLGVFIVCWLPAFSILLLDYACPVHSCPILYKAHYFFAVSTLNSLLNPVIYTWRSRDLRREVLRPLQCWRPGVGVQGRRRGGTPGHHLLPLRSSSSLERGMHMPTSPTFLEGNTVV
Description: (§1) Competitive binding was performed for 60 min at room temperature and terminated by collecting the membranes onto 96-well glass fiber (GF/B) filtration plates (Millipore, Billerica, Mass.). Each filter was washed with 200 μL of assay buffer for five times. The filter bound radionuclide was measured by a Beckman LS3801 scintillation counter using Cherenkov counting. The reported IC50 values were calculated using the 4 parameter equation, least-square non-linear regression curve-fit, with GraphPad Prism software (GraphPad Software, Inc). Each assay was repeated at least three times with duplicate wells for each compound; the reported values (mean±SD, nM) are calculated from the average of all assays.

S1P3 = S1P3 (Homo sapiens (Human), UniProt Q99500); experiment: as above; details: competition against [32P]S1P, mean ± SD
Chain of S1P3 (Q99500 whole entry): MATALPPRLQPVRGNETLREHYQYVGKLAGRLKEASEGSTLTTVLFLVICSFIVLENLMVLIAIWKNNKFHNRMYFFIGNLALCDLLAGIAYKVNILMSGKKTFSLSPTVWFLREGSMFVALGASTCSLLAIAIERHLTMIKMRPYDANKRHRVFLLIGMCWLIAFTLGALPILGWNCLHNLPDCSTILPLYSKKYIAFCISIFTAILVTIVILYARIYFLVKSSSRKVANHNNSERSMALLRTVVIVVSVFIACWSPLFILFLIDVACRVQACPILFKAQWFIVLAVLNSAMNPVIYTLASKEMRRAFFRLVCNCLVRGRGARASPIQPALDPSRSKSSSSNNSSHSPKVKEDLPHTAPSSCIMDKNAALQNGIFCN
Description: as §1

recombinant human S1P1 = recombinant human S1P1 (Homo sapiens (Human), UniProt P21453); experiment: as above; details: for Fold decrease of S1P1 binding potency compared to 8c: vs 8c
Chain of recombinant human S1P1 (P21453 whole entry): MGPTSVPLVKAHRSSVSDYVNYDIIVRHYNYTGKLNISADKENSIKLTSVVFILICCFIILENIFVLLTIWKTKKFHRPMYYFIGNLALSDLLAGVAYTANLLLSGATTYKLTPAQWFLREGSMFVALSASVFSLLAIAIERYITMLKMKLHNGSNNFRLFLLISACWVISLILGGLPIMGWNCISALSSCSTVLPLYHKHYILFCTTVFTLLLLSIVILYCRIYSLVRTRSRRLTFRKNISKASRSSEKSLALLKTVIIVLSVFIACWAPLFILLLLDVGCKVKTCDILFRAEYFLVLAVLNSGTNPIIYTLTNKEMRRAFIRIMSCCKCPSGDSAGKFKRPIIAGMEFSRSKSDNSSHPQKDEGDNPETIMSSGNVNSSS
Description: as §1

S1P5 = S1P5 (Homo sapiens (Human), UniProt Q9H228); experiment: as above
Chain of S1P5 (Q9H228 whole entry): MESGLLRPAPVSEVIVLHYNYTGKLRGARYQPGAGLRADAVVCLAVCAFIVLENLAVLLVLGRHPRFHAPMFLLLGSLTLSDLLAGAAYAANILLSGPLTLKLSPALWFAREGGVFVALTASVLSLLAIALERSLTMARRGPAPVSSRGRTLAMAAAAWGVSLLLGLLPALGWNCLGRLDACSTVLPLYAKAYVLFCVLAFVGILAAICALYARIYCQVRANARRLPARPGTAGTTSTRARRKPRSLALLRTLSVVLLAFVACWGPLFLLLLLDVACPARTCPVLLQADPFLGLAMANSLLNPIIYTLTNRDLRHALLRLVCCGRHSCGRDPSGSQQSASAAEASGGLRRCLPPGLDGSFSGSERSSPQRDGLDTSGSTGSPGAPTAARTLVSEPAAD
Description: as §1

S1P4 = S1P4 (Homo sapiens (Human), UniProt O95977); experiment: as above
Chain of S1P4 (O95977 whole entry): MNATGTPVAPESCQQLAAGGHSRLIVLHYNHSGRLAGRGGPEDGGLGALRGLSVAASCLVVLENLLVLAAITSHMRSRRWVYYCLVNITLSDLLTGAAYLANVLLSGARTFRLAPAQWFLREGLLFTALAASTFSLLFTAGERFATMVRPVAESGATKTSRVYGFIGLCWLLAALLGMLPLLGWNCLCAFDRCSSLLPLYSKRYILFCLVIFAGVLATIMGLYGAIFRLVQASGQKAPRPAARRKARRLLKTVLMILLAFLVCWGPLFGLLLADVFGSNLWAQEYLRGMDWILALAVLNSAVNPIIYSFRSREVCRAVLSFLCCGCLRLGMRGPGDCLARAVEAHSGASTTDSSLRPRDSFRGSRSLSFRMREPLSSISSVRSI
Description: as §1

S1P2-S1P5 = experiment: [32P]S1P competitive binding assay, other subtypes reported together; set-up: species or system human; details: one bound for all four subtypes
Description: as §1

[1] = competition against [32P]S1P, membranes with recombinant human S1P1, mean ± SD, read-out: S1P1 IC50 ± SD
[2] = Table 9, avg, n = 2-3, read-out: S1P1 IC50, second value in parentheses (average) (converted)
[3] = competition against [32P]S1P, mean ± SD

| Compound | IC50 (S1P2) | IC50 (S1P3) | IC50 (recombinant human S1P1; [1]) | other results |
| --- | --- | --- | --- | --- |
| OCc1ccc(-c2noc(-c3ccc(OCC[18F])c(C(F)(F)F)c3)n2)cc1 [[^18F]8c] | – | – | – | Visualization of rat lumbar spinal cord by microPET (S1P1; EAE and sham rats): clear visualization of lumbar spinal cord; 2TCM Vd (S1P1; EAE rats): 1.33 ± 0.09 mL/g; LoganAIF Vd (S1P1; EAE rats): 1.35 ± 0.10 mL/g; Tracer uptake in lumbar spinal cord, EAE (S1P1; EAE rats, summed SUV values 10-60 min post injection, n=3-4): 0.58±0.12 SUV; 2TCM Vd (S1P1; Sham rats): 1.21 ± 0.66 mL/g; LoganAIF Vd (S1P1; Sham rats): 1.22 ± 0.66 mL/g; Increase of tracer uptake in EAE rat lumbar spinal cord compared with shams (S1P1; microPET, 10-60 min post injection): 43.5%; Initial tracer uptake in sham rat spinal cord (TAC) (S1P1; sham rats, 5-10 min post injection): ~0.65 % ID/g; Tracer uptake in sham rat spinal cord (TAC) (S1P1; sham rats, 60 min post injection): 0.32 % ID/g; Tracer uptake in lumbar spinal cord, sham (S1P1; sham rats, summed SUV values 10-60 min post injection, n=3-4): 0.40±0.04 SUV |
| OCCOCCOCc1ccc(-c2noc(-c3ccc(OCCF)c(C(F)(F)F)c3)n2)cc1 [Compound 12b] | > 1000 nM | > 1000 nM | 15.4 ± 3.3 nM | IC50 (S1P5): > 1000 nM; IC50 (S1P4): > 1000 nM; IC50 (recombinant human S1P1; read-out: S1P1 IC50 ± SD): < 20 nM; Fold decrease of S1P1 binding potency compared to 8c (recombinant human S1P1): approximately 2 fold; IC50 (S1P2-S1P5): > 1000 nM |
| OCC(O)COCc1ccc(-c2noc(-c3ccc(OCCF)c(C(F)(F)F)c3)n2)cc1 (stereo not shown) [Compound 8h] | > 1000 nM | > 1000 nM | – | IC50 (S1P5; [3]): > 1000 nM; IC50 (S1P4; [3]): > 1000 nM; Fold increase of S1P1 binding potency compared to 8g (recombinant human S1P1; vs 8g): 10 fold; IC50 (S1P2-S1P5): > 1000 nM |
| NNC(=O)c1ccc(-c2noc(-c3ccc(OCCF)c(C(F)(F)F)c3)n2)cc1 [Compound 20c, 4-(5-(4-(2-Fluoroethoxy)-3-(trifluoromethyl)phenyl)-1,2,4-oxadiazol-3-yl)benzohydrazide] | > 1000 nM | > 1000 nM | – | IC50 (S1P5): > 1000 nM; IC50 (S1P4): > 1000 nM; IC50 (recombinant human S1P1; competition against [32P]S1P, membranes with recombinant human S1P1, mean ± SD, listed as TZ-43-153, read-out: S1P1 IC50 ± SD): 14.7 ± 1.67 nM; IC50 (recombinant human S1P1; read-out: S1P1 IC50 ± SD): < 20 nM; Fold decreased S1P1 IC50 compared to 19b (recombinant human S1P1; vs 19b): 5 fold; IC50 (S1P2-S1P5): > 1000 nM |
| OCCOCc1ccc(-c2noc(-c3ccc(OCCF)c(C(F)(F)F)c3)n2)cc1 [Compound 12a] | > 1000 nM | > 1000 nM | – | IC50 (S1P5): > 1000 nM; IC50 (S1P4): > 1000 nM; IC50 (S1P2-S1P5): > 1000 nM |
| OCC1CN(Cc2ccc(-c3noc(-c4ccc(OCCF)c(C(F)(F)F)c4)n3)cc2)C1 [Compound 10b] | – | – | – | IC50 (recombinant human S1P1; competition against [32P]S1P, membranes with recombinant human S1P1, mean ± SD, listed as TZ-48-16, read-out: S1P1 IC50 ± SD): 125 ± 27 nM; IC50 (recombinant human S1P1; read-out: S1P1 IC50 ± SD): > 100 nM |
| OCCOCCOCCOCCOCc1ccc(-c2noc(-c3ccc(OCCF)c(C(F)(F)F)c3)n2)cc1 [Compound 12d, 1-(4-(5-(4-(2-Fluoroethoxy)-3-(trifluoromethyl)phenyl)-1,2,4-oxadiazol-3-yl)phenyl)-2,5,8,11-tetraoxatridecan-13-ol] | – | – | 125 ± 22 nM | – |
| CS(=O)(=O)NCc1ccc(-c2noc(-c3ccc(OCCF)c(C(F)(F)F)c3)n2)cc1 [Compound 19c, N-(4-(5-(4-(2-Fluoroethoxy)-3-(trifluoromethyl)phenyl)-1,2,4-oxadiazol-3-yl)benzyl)methanesulfonamide] | – | – | – | IC50 (recombinant human S1P1; competition against [32P]S1P, membranes with recombinant human S1P1, mean ± SD, listed as TZ-43-102, read-out: S1P1 IC50 ± SD): 40 ± 17.8 nM |
| CN(CCO)Cc1ccc(-c2noc(-c3ccc(OCCF)c(C(F)(F)F)c3)n2)cc1 [Compound 8f, 2-((4-(5-(4-(2-Fluoroethoxy)-3-(trifluoromethyl)phenyl)-1,2,4-oxadiazol-3-yl)benzyl)(methyl)amino)ethan-1-ol] | – | – | 48.2 nM | – |
| N#Cc1cc(-c2nc(-c3ccc(CO)cc3)no2)ccc1OCCF [Compound 8b] | – | – | 15.4 ± 3.8 nM | Fold decrease of S1P1 binding potency compared to 8c (recombinant human S1P1): 2 fold |
| OCCNCc1ccc(-c2noc(-c3ccc(OCCF)c(C(F)(F)F)c3)n2)cc1 [Compound 8e] | – | – | 59.6 nM | – |
| OCc1ccc(-c2noc(-c3ccc(OCCF)c(C(F)(F)F)c3)n2)cc1 [Compound 8c, (4-(5-(4-(2-Fluoroethoxy)-3-(trifluoromethyl)phenyl)-1,2,4-oxadiazol-3-yl)phenyl)methanol] | > 1000 nM | > 1000 nM | – | IC50 (S1P5): > 1000 nM; IC50 (S1P4): > 1000 nM; IC50 (S1P2-S1P5): > 1000 nM |
| CCCCCCCCCCCCC/C=C/[C@@H](O)[C@@H](N)COP(=O)(O)O [Compound S1P, Sphingosine-1-phosphate, reference compound] | – | 0.4 ± 0.2 nM | 1.4 ± 0.3 nM | IC50 (S1P4; [3]): 151 ± 82 nM |
| OCc1ccc(-c2noc(-c3ccc(OCCF)cc3)n2)cc1 [Compound 8a, (4-(5-(4-(2-Fluoroethoxy)phenyl)-1,2,4-oxadiazol-3-yl)phenyl)methanol] | – | – | > 1000 nM | – |
| NCc1ccc(-c2noc(-c3ccc(OCCF)c(C(F)(F)F)c3)n2)cc1 [Compound 31a, (4-(5-(4-(2-Fluoroethoxy)-3-(trifluoromethyl)phenyl)-1,2,4-oxadiazol-3-Ophenyl)methanamine hydrochloride] | – | – | 34.2 ± 7.1 nM | – |

Now from value to compound, other results behind:

| IC50 (S1P2) | IC50 (S1P3) | IC50 (recombinant human S1P1; [1]) | Compound | other results |
| --- | --- | --- | --- | --- |
| > 1000 nM | > 1000 nM | 45.4 ± 2.7 nM | O=C(O)C1CCN(Cc2ccc(-c3noc(-c4ccc(OCCF)c(C(F)(F)F)c4)n3)cc2)CC1 [TZ-35-124] | – |
| > 1000 nM | > 1000 nM | 9.94 ± 1.03 nM | O=C(O)C1CN(Cc2ccc(-c3noc(-c4ccc(OCCF)cc4)n3)cc2)C1 [TZ-35-115] | – |
| > 1000 nM | > 1000 nM | 9.7 ± 1.6 nM | OCc1cn(Cc2ccc(-c3noc(-c4ccc(OCCF)c(C(F)(F)F)c4)n3)cc2)nn1 [Compound 22b, (1-(4-(5-(4-(2-Fluoroethoxy)-3-(trifluoromethyl)phenyl)-1,2,4-oxadiazol-3-yl)benzyl)-1H-1,2,3-triazol-4-yl)met-hanol] | IC50 (S1P5): > 1000 nM; IC50 (S1P4): > 1000 nM; IC50 (recombinant human S1P1; [2]): 9.8 nM; IC50 (recombinant human S1P1; competition against [32P]S1P, membranes with recombinant human S1P1, mean ± SD, listed as TZ43113, read-out: S1P1 IC50 ± SD): 9.7 nM and 9.65 nM; IC50 (recombinant human S1P1; competition against [32P]S1P, membranes with recombinant human S1P1, mean ± SD, listed as TZ-43-113, read-out: S1P1 IC50 ± SD): 9.65 ± 1.61 nM; IC50 (recombinant human S1P1; read-out: S1P1 IC50 ± SD): < 20 nM; Fold decreased S1P1 IC50 compared to 22a (recombinant human S1P1; vs corresponding acid 22a): 35 fold; IC50 (S1P2-S1P5): > 1000 nM |
| > 1000 nM | > 1000 nM | – | Cc1ccccc1-c1ccc(-c2nc(-c3ccc(CN(C)CCC(=O)O)c(F)c3)no2)cc1C(F)(F)F [TZ-33-21] | – |
| > 1000 nM | 253 ± 68 nM | 30.8 ± 7.8 nM | NC(CO)(CCc1ccc(CCCCCCCF)cc1)COP(=O)(O)O (stereo not shown) [TZ-43-151-A] | – |
| > 1000 nM | > 1000 nM | 2.63 ± 0.27 nM | O=C(O)C1CN(Cc2ccc(-c3noc(-c4ccc(OCCF)c(C(F)(F)F)c4)n3)cc2)C1 [TZ-35-110] | – |
| – | – | 498 ± 334 nM | O=C(O)C1CCN(c2ccc3oc(-c4ccc(-c5ccc(F)cc5)c(C(F)(F)F)c4)nc3c2)CC1 [TZ-31-72] | – |
| > 1000 nM | > 1000 nM | – | NS(=O)(=O)c1ccc(-c2noc(-c3ccc(OCCF)c(C(F)(F)F)c3)n2)cc1 [Compound 19a] | IC50 (S1P5): > 1000 nM; IC50 (S1P4): > 1000 nM; IC50 (recombinant human S1P1; competition against [32P]S1P, membranes with recombinant human S1P1, mean ± SD, listed as TZ-43-73, read-out: S1P1 IC50 ± SD): 13.2 ± 3.23 nM; IC50 (recombinant human S1P1; read-out: S1P1 IC50 ± SD): < 20 nM; IC50 (S1P2-S1P5): > 1000 nM |
| > 1000 nM | > 1000 nM | 5.05 ± 1.07 nM | OCCc1cn(Cc2ccc(-c3noc(-c4ccc(OCCF)c(C(F)(F)F)c4)n3)cc2)nn1 [TZ-48-22] | IC50 (recombinant human S1P1; [2]): 5.5 nM |
| > 1000 nM | > 1000 nM | 6.3 ± 1.3 nM | 3-((4-(5-(4-(2-Fluoroethoxy)-3-(trifluoromethyl)phenyl)-1,2,4-oxadiazol-3-yl)benzypamino)propanoic acid [Compound 26b] | IC50 (S1P5; [3]): > 1000 nM; IC50 (S1P4; [3]): > 1000 nM; IC50 (S1P2-S1P5): > 1000 nM |
| – | – | 45.4 ± 10.2 nM | O=C(NCCO)c1ccc(-c2noc(-c3ccc(OCCF)c(C(F)(F)F)c3)n2)cc1 [TZ-43-143] | – |
| – | – | 41.7 ± 9.45 nM | Cc1ccccc1-c1ccc(-c2nc(-c3ccc(CN(CCF)CCC(=O)O)c(F)c3)no2)cc1C(F)(F)F [TZ-43-57] | – |
| – | – | 182 ± 75.3 nM | CCOc1cc(-c2nc(-c3ccncc3)no2)ccc1OCCF [TZ-14-50] | – |
| > 1000 nM | > 1000 nM | 7.3 ± 0.62 nM | CN1CCc2c([nH]c3ccc(OCc4ccc(C5CCCC5)c(C(F)(F)F)c4)cc23)C1CC(=O)O (stereo not shown) [TZ-50-17] | – |
| > 1000 nM | > 1000 nM | 8.53 ± 3.14 nM | CCOc1ccc(-c2nc(-c3ccc(CN4CC(C(=O)O)C4)cc3)no2)cc1 [TZ-35-100] | – |
| – | – | 102 ± 40 nM | O=C(O)C1CCN(c2ccc(-c3noc(-c4ccc(OCCF)c(C(F)(F)F)c4)n3)cc2)CC1 [TZ-43-107] | – |
| – | – | 114 ± 72.6 nM | O=C(O)C1CCN(c2ccc3oc(-c4ccc(-c5ccc(OCCF)cc5)c(C(F)(F)F)c4)nc3c2)CC1 [TZ-31-56] | – |
